The subject of series [1] is HUH7 human HCC xenografts. Type of series: in vivo. As to conditions: 21 days, HUH7 xenograft. On the procedure: 12 days after the injection of tumor cells the tumor volumes are 138±24 mm^3.
Each group contains 8 animals. […] The application volumes in all experiments were 10 ml/kg.

Series [2] relates to PLC/PFR/5 human HCC xenografts. The series is described as follows: PLC/PFR/5 human HCC subcutaneous xenograft in female nude mice. To be noted: 24 days; for % T/C (ΔT/ΔC %, tumor volume): PLC/PFR/5 xenograft. Background: In xenograft studies the graft and the host belong to different species.
The subject of series [3] is unresectable HCC. To be noted: 1st line treatment, patients with unresectable HCC; cited from earlier work.
The subject of series [4] is HCC. As to conditions: HCC patients of Asia-Pacific region; cited from earlier work.
[5] abbreviates: 50 mg/kg p.o. qd, statistically significant.

Results on 2 molecules are retold here after US8741903B2, “Organic compound for use in the treatment of hepatocellular cancer (HCC)” (priority 2010, dated 2014).

The structures appear in SMILES notation. Read-outs that look alike come from different tables or passages of the source.

As for `CN1CCN(c2ccc3nc(-c4c(N)c5c(F)cccc5[nH]c4=O)[nH]c3c2)CC1` [Compound I, 4-amino-5-fluoro-3-[6-(4-methylpiperazin-1-yl)-1H-benzimidazol-2-yl]-1H-quinolin-2-one], the “% T/C (ΔT/ΔC %, tumor volume)” value in series [1] (10 mg/kg p.o. qd) was 75%; in series [1] (30 mg/kg p.o. qd, statistically significant), 40%; in series [1] (setting [5]), 20%; in series [2] (10 mg/kg p.o. qd), 67%; in series [2] (30 mg/kg p.o. qd), 47%; in series [2] (setting [5]), 19%. Besides, the “effect on body weight as compared to the vehicle-treated group” value in series [2] (10, 30 and 50 mg/kg p.o. qd) is given as “no significant effect on body weight”.

Consider `CNC(=O)c1cc(Oc2ccc(NC(=O)Nc3ccc(Cl)c(C(F)(F)F)c3)cc2)ccn1` [sorafenib], for which the median overall survival in series [3] is listed as 10.7 months; in series [4], 6.5 months.
